Measurements published in US11351163B2, “Compositions and methods of treating cancer” (BRISTOL-MYERS SQUIBB COMPANY, priority 2017, dated 2022).

Tests used:
[1] = test system: kynurenine; experiment: Kynurenine in paired tumor samples and serum of patients (FIG. 1A, 1B); format: in vivo, human
Method: FIG. 1A illustrates intratumoral kynurenine concentrations at 100 mg, 200 mg or 400 mg of the compound of Formula (I).
FIG. 1B illustrates percent serum kynurenine reduction at 20 mg, 50 mg, 100 mg, 200 mg or 400 mg of the compound of Formula (I).
Dark bars represent a pretreatment kynurenine condition and light bars represent an on-treatment kynurenine (C1D15) condition. Asterisks (*) denotes samples below the lower limit of quantitation.

[2] = Clinical trial of Example 2: safety and tolerability (DLTs, TRAEs), dose escalation and expansion; format: in vivo
Source text: Purpose: The purpose of the study is to, among other things, determine safety and effectiveness of a compound of Formula I (or salt thereof) when combined with nivolumab and in combination with both nivolumab and ipilimumab in patients with cancers that are advanced or have spread. Pharmacokinetics and pharmacodynamics (including immunomodulatory assays) of a compound of Formula I when combined with nivolumab and in combination with nivolumab and ipilimumab in this patient population will also be assessed.
Primary Outcome Measures: • Safety and tolerability of a compound of Formula I as measured by a composite of the incidence of adverse events (AEs), serious adverse events (SAEs), AEs leading to discontinuation, deaths, and clinical laboratory test abnormalities. The time frame is 100 days after the last dose of study therapy. • Safety of a compound of Formula I plus nivolumab as measured by a composite of the incidence of adverse events (AEs), serious adverse events (SAEs), AEs leading to discontinuation, deaths, and clinical laboratory test abnormalities. The time frame is 100 days after the last dose of study therapy. • Safety of a compound of Formula I plus both nivolumab and ipilimumab as measured by incidence of adverse events (AEs), serious adverse events (SAEs), AEs leading to discontinuation, deaths, and clinical laboratory test abnormalities. The time frame is 100 days after the last dose of study therapy. • Anti-tumor activity of a compound of Formula I administered in combination with nivolumab as measured by the best overall response (BOR) as measured by CT scan. The time frame is approximately 3 years. • Anti-tumor activity of a compound of Formula I administered in combination with nivolumab as measured by the duration of response (DOR) as measured by CT scan. The time frame is approximately 3 years. • Anti-tumor activity of a compound of Formula I administered in combination with nivolumab as measured by progression-free survival rates (PFSRs) as measured by CT scan. The time frame is approximately 3 years. • Anti-tumor activity of a compound of Formula I administered in combination with both nivolumab and ipilimumab as measured by the best overall response (BOR) as measured by CT scan. The time frame is approximately 3 years. • Anti-tumor activity of a compound of Formula I administered in combination with both nivolumab and ipilimumab as measured by the duration of response (DOR) as measured by CT scan. The time frame is approximately 3 years. • Anti-tumor activity of a compound of Formula I administered in combination with both nivolumab and ipilimumab as measured by progression-free survival rates (PFSRs) as measured by CT scan. The time frame is approximately 3 years.
1. Combination Therapy (Dose Escalation). Participants with advanced cancers received a compound of Formula I orally (PO), daily (QD) at a dose of 25 mg, 50 mg, 100 mg or 200 mg for all advanced cancers over a 2 week lead-in period. Participants were then also administered nivolumab intravenously at a dose of 240 mg once every two weeks.
2. Combination Therapy (Dose Expansion). A total of 219 participants with select previously treated advanced malignancies received a compound of Formula I at a dose of 100 or 200 mg orally once daily plus nivolumab at a dose of 240 mg intravenously once every two weeks (Q2W) or at a dose of 480 mg intravenously once every four weeks (Q4W). Advanced malignancies included cervical cancer (21 patients), diffuse large B-cell lymphoma (DLBCL) (4 patients), non-small cell lung cancer (NSCLC) (7 patients), renal cell carcinoma (RCC) (0 patients); squamous cell carcinoma of the head and neck (SCCHN) (16 patients), bladder cancer (18 patients), pancreatic cancer (18 patients), melanoma (21 patients), and ASST, a mixed tumor type cohort consisting of sarcoma, endometrial and breast cancer (19 patients). […]

[3] = Clinical trial of Example 10: safety (TRAEs) and end of treatment disposition; format: in vivo
Source text: Primary Outcome Measures: • Safety and tolerability of a compound of Formula I as measured by a composite of the incidence of adverse events (AEs), serious adverse events (SAEs), AEs leading to discontinuation, deaths, and clinical laboratory test abnormalities. The time frame is 100 days after the last dose of study therapy. • Safety of a compound of Formula I plus nivolumab as measured by a composite of the incidence of adverse events (AEs), serious adverse events (SAEs), AEs leading to discontinuation, deaths, and clinical laboratory test abnormalities. […] The time frame is approximately 3 years. • Anti-tumor activity of a compound of Formula I administered in combination with nivolumab as measured by the duration of response (DOR) as measured by CT scan. The time frame is approximately 3 years. • Anti-tumor activity of a compound of Formula I administered in combination with nivolumab as measured by progression-free survival rates (PFSRs) as measured by CT scan. The time frame is approximately 3 years.
1. Combination Therapy (Dose Escalation).
2. Combination Therapy (Dose Expansion). […] Three patients received the compound of Formula I alone. IDO1 inhibitor therapy is not permitted. Prior exposure to immune checkpoint inhibitors or therapy targeting T-cell costimulation requires a washout period of >4 weeks.

[4] = patients with advanced bladder cancer

## C[C@@H](C(=O)Nc1ccc(Cl)cc1)[C@H]1CC[C@@H](c2ccnc3ccc(F)cc32)CC1 [compound of Formula I, (R)-N-(4-chlorophenyl)-2-(cis-4-(6-fluoroquinolin-4-yl)cyclohexyl)propanamide]
[1]; 100 mg once daily, FIG. 1B
  reduction in serum kynurenine levels: ~60%
[1]; 39 paired pre- vs on-treatment (C1D15) tumor samples across various tumor types, FIG. 1A
  intratumoral kynurenine: reduced across all doses
[2]; 25 mg, dose escalation
  # of DLTs/# DLT evaluable: 0/7
[2]; 50 mg, dose escalation
  # of DLTs/# DLT evaluable: 0/8
[2]; 100 mg, dose escalation
  # of DLTs/# DLT evaluable: 1/9
[2]; 200 mg, dose escalation
  # of DLTs/# DLT evaluable: 3/12
[2]; 400 mg, dose escalation
  # of DLTs/# DLT evaluable: 2/4
  DLTs: grade 3 AST/ALT; grade 2 anemia, fatigue
[2]; during escalation
  Maximum tolerated dose: 200 mg
[3]; 100 mg vs the 200-mg dose, with nivolumab
  tolerability of 100 mg: improved tolerability vs the 200-mg dose
[3]; [4]
  tolerability: well tolerated
  treatment-related deaths: No treatment-related deaths occurred
